The subject of data set [1] is Human Cryopreserved Hepatocytes. The data set can be described thus: Metabolic stability in human cryopreserved hepatocytes. The class given is in vitro ADME. As to the method: The metabolic stability of the Compounds of Examples 1 and 4 is therefore evaluated to determine whether metabolic degradation results in metabolites of concern.
Briefly, Human Cryopreserved Hepatocytes (Gibco, lot. HUE125) are added to incubation wells in a 96-well assay plate at a density of 500,000 cells/mL in William's E Medium. […] The wells are incubated at 37° C. and stop solution is added to wells at time points: 0, 30, 60, 120, 240 min. The stop solution is ice-cold solution containing 0.5 μM labetalol in acetonitrile (100 μL/well) (2:1, vol/vol). Each time point is tested in triplicate. Analysis is carried out by LC-MS.
• Instrument: QExactive • Column: Luna Omega 1.6 μm polar C18 100 Å (150×2.1 mm) • Column temperature: 40° C. • Column No: 102+pre-column installed • Injection volume: 2 μl • Flux: 0.40 mL/min • Polarity: Negative • Fluent A: water Milli Q+0.1% FA • Fluent B: ACN+0.1% FA • Acquisition method: Full MS+DDS on the IL obtained with MassMetaSite (peak others ON).

The nature of data set [2]: Egg concentration analysis from topically treated chickens. The following applies: in vivo. Format: in vivo. As to the method: One animal is left untreated as a negative control.
A modified and optimized QuEChERS protocol was employed to extract the compounds from eggs. The shell is manually removed, and then each egg is transferred to a clean beaker and homogenized with an electric mixer for small volumes. 5 grams of homogenized egg is put into a 50 mL Falcon tube, and 5 mL of water is added and the samples are shaken for 10 minutes. Next, 10 mL of acetonitrile is added and the samples are shaken again for 10 minutes. Then the roQ salts (4.0 g MgSO4, 1.0 g NaCl, 1.0 SCTD and 0.5 g SCDS, Phenomenex P/N KS08909) are added to each sample, and the mixture is well shaken for 10 minutes. Samples are then centrifuged at 2500 g for 5 minutes at room temperature, and the supernatant is transferred to an HPLC vial for analysis. The same HPLC-MS method is used as described above.
One egg from two chickens is analyzed: one chicken treated with Fipronil and one chicken treated with the Compound of Example 1. The eggs are both from Day 5. The results are shown in the following tables expressed as relative LC-MS peak area: […]

Another data set has as its system Dermanyssus gallinae. The data set can be described thus: Antiparasitic efficacy on live chickens with natural mite infestation. Format: in vivo. The following applies: by day 5 of treatment; 0.25% (w/v) spray, 7.5 mg/kg once daily for 5 days. How it is done: Two animals are treated with the compound of Example 1, and two animals are treated with Fipronil, while one animal is left untreated as a negative control. The infestation by D. gallinae is monitored by checking the density of mites in particular areas of the animal's bodies (feet, legs, and wings), comparing pre-treatment levels of infestation to post-treatment levels.
When all pests have been eliminated, a 100% pest control capability was achieved. In the case of some chemical products, when the pest was not fully eliminated, the disinfestation capacity was measured by averaging the number of infesting organisms located in three distinct areas of the treated animals, at the beginning of the treatment, and at the end of the treatment.

In data set [3] the test system is adult worker honeybees, Apis mellifera L. The data set can be described thus: Acute oral toxicity test in honeybees (OECD 213). Format: in vivo. How it is done: Untreated 50% w/v sucrose solution with 0.2% of propanol-water solution (ratio 80%-20%) is used as a negative control.
The test item is diluted with aqueous sucrose solution 50% (w/v) to prepare the oral solutions. The bees used for the oral test are anesthetized with carbon dioxide for the time necessary to immobilize them and placed inside the test cages; 2 hours before the treatment they are starved. A volume of 200 μL (20 μL/bee) of treated diet is administered to each cage with a dispenser (e.g., a syringe without tip), weighed before and after filling.
The overall exposure period is 6 hours, during which consumption is monitored: the feeder is changed at the end of the six hours or once the treated diet has been consumed (usually within 3-4 hours). In both cases, the feeder is weighed and a new feeder with untreated 50% (w/v) sucrose solution is provided ad libitum, and the mean effective dose is calculated based on the actual consumption.

Data set [4] shares this test system. The following applies: contact. The source says: In accordance with OECD Test Guidelines No. 213 and 214, the test is considered valid if: (1) the average mortality of the control groups is ≤10% at the end of the test; and the average, control-corrected mortality of the reference item groups is ≥50% at the end of the test, at the tested dose (internal validity criteria according to POS BT200).
Young Apis mellifera L. worker honeybees are randomly collected in the morning of use or the day before from an adequately fed, healthy diseases-free and queen right beehive, not treated with chemical substances. Hives from an established apiary colony are used, and the colonies are inspected periodically, according to standard bee-keeping practices. All colonies are kept outside under field conditions and bees collect food from the environment. The last treatment against Varroa mites was done in November 2023. The bees are fed ad libitum with a water sucrose solution 50% w/v (or 500 g/L), prepared with tap water.
Adult worker honeybees are exposed to three increasing doses of the test item (see Table 2) by direct application to the thorax (droplets, see section 4.5.2). One control group is treated with propanol-water solution (ratio 80%-20%) in addition to test item groups.
Bee mortality is recorded after 4, 24 and 48 hours, and compared with the control value. If the mortality rate increases by more than 10% between 24 and 48 hours, whilst the control mortality rate remains ≤10%, the is extended to a maximum of 96 hours.
The test item is diluted in propanol-water solution (ratio 80%-20%) to prepare the contact solutions.
The bees used for the contact test are anaesthetized with carbon dioxide and individually treated by topical application of 2 μL of the test solutions onto the thorax using a micro applicator. The honeybees are then be moved to the cages and fed ad libitum with sucrose solution.
Disposable and well-ventilated cages with an internal volume not lower than 200 cm^3 are used. Each cage is equipped with a transparent lid, for a suitable observation of the bees from outside. The upper side of the cage has at least one hole for inserting the feeder: a syringe filled of 50% (w/v) aqueous sucrose solution is inserted in one hole.
The tests are conducted under the following conditions: (a) Temperature: 25.00[…]; (b) Relative humidity: 60.00[…], The honeybees are kept under constant darkness except during the assessments. Throughout the experimental phase, the temperature and relative humidity is continuously recorded with a dedicated data-logger with sensors located close to the test units.
The number of dead honeybees per cage is recorded after 4, 24 and 48 hours. If a prolonged observation period is required, further assessments are made every 24 hours, tip to a maximum duration of 96 hours. The amount of diet consumed per group is quantitatively estimated if treated diet will be left after 6 hours of exposure.
Data is summarized in tabular form, showing the number of live, dead and abnormal bees per experimental group. The mortality of each replicate is calculated as a percentage, comparing the number of dead bees to those introduced at the beginning. The mean value of the treated group is compared to the mean mortality of the respective control group(s) using the Abbott's formula modified by Schneider-Orelli (POS BT 200): […]

Like-named read-outs stand apart in the source and are kept apart here.

Turning to `N#Cc1nn(-c2c(Cl)cc(C(F)(F)F)cc2Cl)c2nc(O)cc(C(F)F)c12` [Example 4, 1-(2,6-dichloro-4-(trifluoromethyl)phenyl)-4-(difluoromethyl)-6-hydroxy-1H-pyrazolo[3,4-b]pyridine-3-carbonitrile], in data set [1] (after 240 minutes, 1 μM, 500,000 cells/mL, 37° C.), the “Original compound still present” value is “approximately 84.2%”. Besides, in data set [1] (human hepatocytes, up to 240 min, 1 μM), the “Metabolic stability (in words)” value is “highly metabolically stable”.

As to `NC(=O)c1nn(-c2c(Cl)cc(C(F)(F)F)cc2Cl)c(N)c1[S+]([O-])C(F)(F)F` (stereo not drawn) [Fipronil Amide, Fipronil amide], the “Relative LC-MS peak area of analyte in egg” value (“Relative LC-MS peak area” for short) in data set [2] came out at 3.8.

As for `N#Cc1nn(-c2c(Cl)cc(C(F)(F)F)cc2Cl)c(N)c1S(=O)(=O)C(F)(F)F` [Fipronil Sulfone, Fipronil sulfone], in data set [2] (chicken, 5 days), the “Relative LC-MS peak area” value is reported as 5.6.

`N#Cc1nn(-c2c(Cl)cc(C(F)(F)F)cc2Cl)c(N)c1[S+]([O-])C(F)(F)F` (stereo not drawn) [Fipronil, reference compound]: the “Relative LC-MS peak area” value in data set [2] (chicken, 5 days) is 4.8. Further, the “Chickens free of mites” value in the data set with Dermanyssus gallinae came out at 100%. Also, the “% CM (4 hours)” value in data set [3] (group T1, dose 0.002 μg/bee) is 0.0%; in data set [3] (group T2, dose 0.004 μg/bee) it was 0.0%; in data set [3] (group T3, dose 0.006 μg/bee), 3.3%; in data set [4] (group T1, dose 0.002 μg/bee), 0.0%; in data set [4] (group T2, dose 0.004 μg/bee), 0.0%; in data set [4] (group T3, dose 0.006 μg/bee), 0.0%. The “% CM (24 hours)” value in data set [3] (group T1, dose 0.002 μg/bee) was found to be 20.8%; in data set [3] (group T2, dose 0.004 μg/bee) it was 37.5%; in data set [3] (group T3, dose 0.006 μg/bee), 58.3%; in data set [4] (group T1, dose 0.002 μg/bee), 7.1%; in data set [4] (group T2, dose 0.004 μg/bee), 25.0%; in data set [4] (group T3, dose 0.006 μg/bee), 71.4%. Further, the “% CM (48 hours)” value turned out to be 23.8% in data set [3] (group T1, dose 0.002 μg/bee); 33.3% in data set [3] (group T2, dose 0.004 μg/bee); 66.7% in data set [3] (group T3, dose 0.006 μg/bee); 7.7% in data set [4] (group T1, dose 0.002 μg/bee); 30.8% in data set [4] (group T2, dose 0.004 μg/bee); 76.9% in data set [4] (group T3, dose 0.006 μg/bee).

(Values after US12419308B2, “Phenylpyrazole insecticide compounds and compositions” (priority 2023, dated 2025).)
